ChEMBL document CHEMBL5108078, “Design and Synthesis of Phenyl Sulfide-Based Cationic Amphiphiles as Membrane-Targeting Antimicrobial Agents against Gram-Positive Pathogens” (J Med Chem, 2022)
Values after ≈ are worked out from the molar mass of the structure shown.

Experiments:
[1] = Hemolytic activity in rabbit RBC incubated for 1 hr by microplate reader analysis; assay type: toxicity, cell-based, Oryctolagus cuniculus, Erythrocyte; settings: rabbit red blood cells (erythrocytes)
[2] = tested on: Staphylococcus aureus; test: Antibacterial activity against methicillin resistant Staphylococcus aureus N315 assessed as inhibition of bacterial growth incubated for 24 hrs by microbroth dilution method; assay type: functional
[3] = tested on: Staphylococcus aureus; test: Antibacterial activity against Staphylococcus aureus ATCC 29213 assessed as inhibition of bacterial growth incubated for 24 hrs by microbroth dilution method; assay type: functional
[4] = tested on: Staphylococcus aureus; test: Antibacterial activity against methicillin resistant Staphylococcus aureus NCTC10442 assessed as inhibition of bacterial growth incubated for 24 hrs by microbroth dilution method; assay type: functional
[5] = tested on: Staphylococcus epidermidis; test: Antibacterial activity against Staphylococcus epidermidis CMCC26069 assessed as inhibition of bacterial growth incubated for 24 hrs by microbroth dilution method; assay type: functional
[6] = tested on: Bacillus subtilis; test: Antibacterial activity against Bacillus subtilis CMCC63501 assessed as inhibition of bacterial growth incubated for 24 hrs by microbroth dilution method; assay type: functional
[7] = tested on: Staphylococcus aureus; test: Antibacterial activity against Staphylococcus aureus ATCC 15981 assessed as inhibition of bacterial growth incubated for 24 hrs by microbroth dilution method; assay type: functional
[8] = tested on: Enterococcus faecalis; test: Antibacterial activity against Enterococcus faecalis ATCC 29212 assessed as inhibition of bacterial growth incubated for 24 hrs by microbroth dilution method; assay type: functional
[9] = tested on: Staphylococcus epidermidis; test: Antibacterial activity against Staphylococcus epidermidis ATCC 12228 assessed as inhibition of bacterial growth incubated for 24 hrs by microbroth dilution method; assay type: functional

| Structure (SMILES) | HC50 at 1 h [1] | MIC [2] | MIC [3] | MIC [4] | MIC [5] | MIC [6] | MIC [7] | MIC [8] | MIC [9] |
| --- | --- | --- | --- | --- | --- | --- | --- | --- | --- |
| CCCN(CCC)CCCCOc1ccc(C(C)(C)CC(C)(C)C)cc1Sc1cc(C(C)(C)CC(C)(C)C)ccc1OCCCCN(CCC)CCC | > 200 µg/mL | > 50 µg/mL | > 50 µg/mL | > 50 µg/mL |  |  |  |  |  |
| Cc1cc(Sc2cc(C)cc(C(C)(C)C)c2O)c(O)c(C(C)(C)C)c1 | > 200 µg/mL | > 50 µg/mL | > 50 µg/mL | > 50 µg/mL |  |  |  |  |  |
| CN(C)CCCCOc1ccc(C(C)(C)CC(C)(C)C)cc1Sc1cc(C(C)(C)CC(C)(C)C)ccc1OCCCCN(C)C | 23.2 µg/mL | 1.56 µg/mL (≈ 2.43 µM) | 1.56 µg/mL (≈ 2.43 µM) | 1.56 µg/mL (≈ 2.43 µM) |  |  |  |  |  |
| COC(=O)[C@H](CCCNC(=N)N)NC(=O)COc1c(Sc2cc(C)cc(C(C)(C)C)c2OCC(=O)N[C@@H](CCCNC(=N)N)C(=O)OC)cc(C)cc1C(C)(C)C | > 200 µg/mL | 1.56 µg/mL (≈ 1.91 µM) | 3.12 µg/mL (≈ 3.83 µM) | 3.12 µg/mL (≈ 3.83 µM) | 0.78 µg/mL (≈ 0.957 µM) | 1.56 µg/mL (≈ 1.91 µM) | 1.56 µg/mL (≈ 1.91 µM) | 12.5 µg/mL (≈ 15.3 µM) | 0.78 µg/mL (≈ 0.957 µM) |
| CCCCNCCCCOc1ccc(C(C)(C)CC(C)(C)C)cc1Sc1cc(C(C)(C)CC(C)(C)C)ccc1OCCCCNCCCC | 41.5 µg/mL | 6.25 µg/mL (≈ 8.96 µM) | 6.25 µg/mL (≈ 8.96 µM) | 6.25 µg/mL (≈ 8.96 µM) |  |  |  |  |  |
| COC(=O)[C@H](CCCNC(=N)N)NC(=O)[C@H](CCCNC(=N)N)NC(=O)COc1ccc(C(C)(C)CC(C)(C)C)cc1Sc1cc(C(C)(C)CC(C)(C)C)ccc1OCC(=O)N[C@@H](CCCNC(=N)N)C(=O)N[C@@H](CCCNC(=N)N)C(=O)OC | > 200 µg/mL | 1.56 µg/mL (≈ 1.29 µM) | 1.56 µg/mL (≈ 1.29 µM) | 3.12 µg/mL (≈ 2.58 µM) | 1.56 µg/mL (≈ 1.29 µM) | 1.56 µg/mL (≈ 1.29 µM) | 3.12 µg/mL (≈ 2.58 µM) | 3.12 µg/mL (≈ 2.58 µM) | 1.56 µg/mL (≈ 1.29 µM) |
| COC(=O)[C@H](CCCCN)NC(=O)COc1ccc(C(C)(C)CC(C)(C)C)cc1Sc1cc(C(C)(C)CC(C)(C)C)ccc1OCC(=O)N[C@@H](CCCCN)C(=O)OC | 162 µg/mL | 1.56 µg/mL (≈ 1.85 µM) | 3.12 µg/mL (≈ 3.71 µM) | 3.12 µg/mL (≈ 3.71 µM) |  |  |  |  |  |
| Oc1ccc(Cl)cc1Sc1cc(Cl)ccc1O [FENTICLOR] | > 200 µg/mL | > 50 µg/mL | > 50 µg/mL | > 50 µg/mL |  |  |  |  |  |
| CC(C)(C)CC(C)(C)c1ccc(OCCCCN2CCCCC2)c(Sc2cc(C(C)(C)CC(C)(C)C)ccc2OCCCCN2CCCCC2)c1 | > 200 µg/mL | 12.5 µg/mL (≈ 17.3 µM) | 12.5 µg/mL (≈ 17.3 µM) | 25 µg/mL (≈ 34.7 µM) |  |  |  |  |  |
| CCOC(=O)COc1ccc(C(C)(C)CC(C)(C)C)cc1Sc1cc(C(C)(C)CC(C)(C)C)ccc1O | > 200 µg/mL | > 50 µg/mL | > 50 µg/mL | > 50 µg/mL |  |  |  |  |  |
| CCCCCCNCCCCOc1ccc(C(C)(C)CC(C)(C)C)cc1Sc1cc(C(C)(C)CC(C)(C)C)ccc1OCCCCNCCCCCC | > 200 µg/mL | > 50 µg/mL | > 50 µg/mL | > 50 µg/mL |  |  |  |  |  |
| CCNCCCCOc1ccc(C(C)(C)CC(C)(C)C)cc1Sc1cc(C(C)(C)CC(C)(C)C)ccc1OCCCCNCC | 30.8 µg/mL | 1.56 µg/mL (≈ 2.43 µM) | 1.56 µg/mL (≈ 2.43 µM) | 1.56 µg/mL (≈ 2.43 µM) |  |  |  |  |  |
| CC(C)(C)CC(C)(C)c1ccc(O)c(Sc2cc(C(C)(C)CC(C)(C)C)ccc2OCC(=O)N[C@@H](CCCNC(=N)N)C(N)=O)c1 | > 200 µg/mL | 12.5 µg/mL (≈ 19.1 µM) | 12.5 µg/mL (≈ 19.1 µM) | 12.5 µg/mL (≈ 19.1 µM) |  |  |  |  |  |
| CC(C)(C)CC(C)(C)c1ccc(OCC(=O)N[C@@H](CCCNC(=N)N)C(=O)N[C@@H](CCCNC(=N)N)C(N)=O)c(Sc2cc(C(C)(C)CC(C)(C)C)ccc2OCC(=O)N[C@@H](CCCNC(=N)N)C(=O)N[C@@H](CCCNC(=N)N)C(N)=O)c1 | > 200 µg/mL | 6.25 µg/mL (≈ 5.29 µM) | 6.25 µg/mL (≈ 5.29 µM) | 6.25 µg/mL (≈ 5.29 µM) |  |  |  |  |  |
